According to patent US20230150986A1, “ANTAGONISTS OF THE MUSCARINIC ACETYLCHOLINE RECEPTOR M4” (Vanderbilt University, priority 2019, published 2023):

Biological target: T1, Human M4 (Homo sapiens, UniProt P08173)
T1 construct: Human or rat M4 cDNA, along with the chimeric G protein Gq,5, were transfected into Chinese hamster ovary (CHO-K1) cells; expressed in transfected cells; host or cells: CHO-K1 (M4/Gqi5/CHO)
T1 sequence (P08173 1-479): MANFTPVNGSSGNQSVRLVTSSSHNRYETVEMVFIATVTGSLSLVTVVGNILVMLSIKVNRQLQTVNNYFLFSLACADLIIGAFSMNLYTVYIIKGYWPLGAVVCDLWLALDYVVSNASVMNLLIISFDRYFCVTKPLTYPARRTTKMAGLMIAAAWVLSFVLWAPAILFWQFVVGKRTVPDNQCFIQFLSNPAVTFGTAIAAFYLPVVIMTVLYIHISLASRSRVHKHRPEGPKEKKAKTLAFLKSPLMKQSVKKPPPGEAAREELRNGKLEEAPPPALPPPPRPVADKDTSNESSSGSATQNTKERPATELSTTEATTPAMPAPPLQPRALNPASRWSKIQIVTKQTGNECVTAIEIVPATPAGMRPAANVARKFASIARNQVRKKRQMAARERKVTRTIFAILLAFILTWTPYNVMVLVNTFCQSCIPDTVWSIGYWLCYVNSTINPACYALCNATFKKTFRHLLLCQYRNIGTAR
Test: mAChR M4 cell-based functional assay (calcium flux, decrease of EC80 acetylcholine response)
Details: for Human M4 Emin: % ACh maximum at 30 μM; for IC50: CHO-K1 cells with human M4 and Gqi5, EC80 acetylcholine
Procedure, shortened: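 CHO-K1 cells stably co-expressing M4 with chimeric Gqi5, loaded with Fluo-4 AM for 50 min at 37 °C; compounds added as 10-point 1:3 curves, then acetylcholine at EC20 (143 s) and EC80 (268 s). Calcium read by FDSS fluorescence ratio; IC50 from four-parameter fit of decrease in EC80 acetylcholine response.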

Structure (SMILES)	Human M4 Emin	IC50
[2H]C([2H])([C@@H]1COCCO1)N1C[C@H]2C[C@H](Nc3ccc(-c4cc(F)cc(F)c4F)nn3)C[C@H]2C1 [Compound 42, (3aR,5s,6aS)-2-(((R)-1,4-dioxan-2-yl)methyl-d2)-N-(6-(2,3,5-trifluorophenyl)pyridazin-3-yl)octahydrocyclopenta[c]pyrrol-5-amine]	3%	35 nM
[2H]C([2H])(C1CCOCC1)N1C[C@H]2C[C@H](Nc3ccc(-c4cc(F)cc(F)c4F)nn3)C[C@H]2C1 [Compound 81, (3aR,5s,6aS)-2-((tetrahydro-2H-pyran-4-yl)methyl-d2)-N-(6-(2,3,5-trifluorophenyl)pyridazin-3-yl)octahydrocyclopenta[c]pyrrol-5-amine]	3%	6.7 nM
[2H]C([2H])([C@@H]1CCOC1)N1C[C@H]2C[C@H](Nc3ccc(-c4cc(F)cc(F)c4F)nn3)C[C@H]2C1 [Compound 44, (3aR,5s,6aS)-2-(((S)-tetrahydrofuran-3-yl)methyl-d2)-N-(6-(2,3,5-trifluorophenyl)pyridazin-3-yl)octahydrocyclopenta[c]pyrrol-5-amine]	2%	31.3 nM
Fc1cc(F)c(F)c(-c2ccc(N[C@@H]3C[C@H]4CN(CC5CCOCC5)C[C@H]4[C@@H]3F)nn2)c1 (racemic) [Compound 86, (3aR,4R,5S,6aS)-4-fluoro-2-((tetrahydro-2H-pyran-4-yl)methyl)-N-(6-(2,3,5-trifluorophenyl)pyridazin-3-yl)octahydrocyclopenta[c]pyrrol-5-amine and (3aS,4S,5R,6aR)-4-fluoro-2-((tetrahydro-2H-pyran-4-yl)methyl)-N-(6-(2,3,5-trifluorophenyl)pyridazin-3-yl)octahydrocyclopenta[c]pyrrol-5-amine]	2%	3.1 nM
Fc1ccc(OCCN2C[C@H]3C[C@H](Nc4ccc(-c5cc(F)cc(F)c5F)nn4)C[C@H]3C2)cc1 [Compound 58, (3aR,5s,6aS)-2-(2-(4-fluorophenoxy)ethyl)-N-(6-(2,3,5-trifluorophenyl)pyridazin-3-yl)octahydrocyclopenta[c]pyrrol-5-amine]	4%	170 nM
Fc1cc(F)c(F)c(-c2ccc(N[C@H]3C[C@@H]4CN(C5CCCCCC5)C[C@@H]4C3)nn2)c1 [Compound 6, (3aR,5s,6aS)-2-cycloheptyl-N-(6-(2,3,5-trifluorophenyl)pyridazin-3-yl)octahydrocyclopenta[c]pyrrol-5-amine]	3%	20.9 nM
COc1ccc(OCCN2C[C@H]3C[C@H](Nc4ccc(-c5cc(F)cc(F)c5F)nn4)C[C@H]3C2)cc1 [Compound 59, (3aR,5s,6aS)-2-(2-(4-methoxyphenoxy)ethyl)-N-(6-(2,3,5-trifluorophenyl)pyridazin-3-yl)octahydrocyclopenta[c]pyrrol-5-amine]	2%	60 nM
Cc1ccc(CN2C[C@H]3C[C@H](Nc4ccc(-c5cc(F)cc(F)c5F)nn4)C[C@H]3C2)nc1 [Compound 18, (3aR,5s,6aS)-2-((5-methylpyridin-2-yl)methyl)-N-(6-(2,3,5-trifluorophenyl)pyridazin-3-yl)octahydrocyclopenta[c]pyrrol-5-amine]	4%	24.3 nM
[2H]C([2H])(N1C[C@H]2C[C@H](Nc3ccc(-c4cc(F)cc(F)c4F)nn3)C[C@H]2C1)C1(C)CCOCC1 [Compound 14, (3aR,5s,6aS)-2-((4-methyltetrahydro-2H-pyran-4-yl)methyl-d2)-N-(6-(2,3,5-trifluorophenyl)pyridazin-3-yl)octahydrocyclopenta[c]pyrrol-5-amine]	2%	6.13 nM
CC(c1ccccn1)N1C[C@H]2C[C@H](Nc3ccc(-c4cc(F)cc(F)c4F)nn3)C[C@H]2C1 (stereo partly drawn) [Compound 13, (3aR,5s,6aS)-2-(1-(pyridin-2-yl)ethyl)-N-(6-(2,3,5-trifluorophenyl)pyridazin-3-yl)octahydrocyclopenta[c]pyrrol-5-amine]	3%	74.6 nM
Fc1cc(F)c(F)c(-c2ccc(N[C@H]3C[C@@H]4CN(CC5CCCOCC5)C[C@@H]4C3)nn2)c1 (stereo partly drawn) [Compound 73, (3aR,5s,6aS)-2-(oxepan-4-ylmethyl)-N-(6-(2,3,5-trifluorophenyl)pyridazin-3-yl)octahydrocyclopenta[c]pyrrol-5-amine]	3%	0.82 nM
Fc1cc(F)c(F)c(-c2ccc(N[C@H]3C[C@@H]4CN(CC5CC6(COC6)C5)C[C@@H]4C3)nn2)c1 [Compound 68, (3aR,5s,6aS)-2-((2-oxaspiro[3.3]heptan-6-yl)methyl)-N-(6-(2,3,5-trifluorophenyl)pyridazin-3-yl)octahydrocyclopenta[c]pyrrol-5-amine]	3%	0.36 nM
Fc1cc(F)c(F)c(-c2ccc(N[C@H]3C[C@@H]4CN(CC5CCCOC5)C[C@@H]4C3)nn2)c1 (single isomer, unassigned) [Compound 25]	3%	5.7 nM
Fc1cc(F)c(F)c(-c2ccc(N[C@H]3C[C@@H]4CN(CCC5CCOCC5)C[C@@H]4C3)nn2)c1 [Compound 4, (3aR,5s,6aS)-2-(2-(tetrahydro-2H-pyran-4-yl)ethyl)-N-(6-(2,3,5-trifluorophenyl)pyridazin-3-yl)octahydrocyclopenta[c]pyrrol-5-amine]	4%	3.09 nM
Fc1cc(F)c(F)c(-c2ccc(N[C@H]3C[C@@H]4CN(CC5(F)CCCCC5)C[C@@H]4C3)nn2)c1 [Compound 87, (3aR,5s,6aS)-2-((1-fluorocyclohexyl)methyl)-N-(6-(2,3,5-trifluorophenyl)pyridazin-3-yl)octahydrocyclopenta[c]pyrrol-5-amine]	3%	41 nM
Fc1cc(F)c(F)c(-c2ccc(N[C@H]3C[C@@H]4CN(C[C@H]5COCCO5)C[C@@H]4C3)nn2)c1 [Compound 29, (3aR,5s,6aS)-2-(((S)-1,4-dioxan-2-yl)methyl)-N-(6-(2,3,5-trifluorophenyl)pyridazin-3-yl)octahydrocyclopenta[c]pyrrol-5-amine]	3%	48.3 nM
CC1(C)CC(N2C[C@H]3C[C@H](Nc4ccc(-c5cc(F)cc(F)c5F)nn4)C[C@H]3C2)CC(C)(C)O1 [Compound 7, (3aR,5s,6aS)-2-(2,2,6,6-tetramethyltetrahydro-2H-pyran-4-yl)-N-(6-(2,3,5-trifluorophenyl)pyridazin-3-yl)octahydrocyclopenta[c]pyrrol-5-amine]	4%	215 nM
Fc1cc(F)c(F)c(-c2ccc(N[C@H]3C[C@@H]4CN(C[C@H]5[C@@H]6COC[C@@H]65)C[C@@H]4C3)nn2)c1 [Compound 71, (3aR,5s,6aS)-2-(((1R,58,6s)-3-oxabicyclo[3.1.0]hexan-6-yl)methyl)-N-(6-(2,3,5-trifluorophenyl)pyridazin-3-yl)octahydrocyclopenta[c]pyrrol-5-amine]	3%	0.47 nM
[2H]C(C)(C1CCOCC1)N1C[C@H]2C[C@H](Nc3ccc(-c4cc(F)cc(F)c4F)nn3)C[C@H]2C1 (stereo partly drawn) [Compound 12, (3aR,5s,6aS)-2-(1-(tetrahydro-2H-pyran-4-yl)ethyl-1-d)-N-(6-(2,3,5-trifluorophenyl)pyridazin-3-yl)octahydrocyclopenta[c]pyrrol-5-amine]	3%	8.64 nM
